Measurements from ChEMBL document CHEMBL1201862, “PubChem BioAssay data set” (2004).
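48-hour exposure; five concentrations; linearly interpolated endpoints. GI50: concentration for 50% inhibition of growth.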 Activity calls are given as the source filed them. No stated cut-off is given here; in the data, active = GI50 up to about 1.1 µM and inactive = higher.

What was measured:
Test in all cases: DTP human tumour cell line panel, 48 h
COLO 205 = system: COLO 205
DU-145 = system: DU-145
HCT-15 = system: HCT-15
HOP-92 = system: HOP-92
Hs-578T = system: Hs-578T
MOLT-4 = system: MOLT-4
Malme-3M = system: Malme-3M
NCI-H226 = system: NCI-H226
OVCAR-3 = system: OVCAR-3
OVCAR-4 = system: OVCAR-4
RXF 393 = system: RXF 393
SF-268 = system: SF-268
SF-295 = system: SF-295
SK-MEL-28 = system: SK-MEL-28
SK-MEL-5 = system: SK-MEL-5
SN12C = system: SN12C
SNB-19 = system: SNB-19
T47D = system: T47D
UO-31 = system: UO-31
M19-MEL = system: M19-MEL

With OC1CCCC1C(O)(C(F)(F)F)C(F)(F)F (centres undefined) the GI50 (COLO 205) was > 100 µM (inactive), the GI50 (DU-145) was > 100 µM (inactive) and the GI50 (HCT-15) was greater than 100 µM. The GI50 (HOP-92) was > 100 µM (inactive), the GI50 (Hs-578T) was > 100 µM (inactive) and the GI50 (MOLT-4) was > 100 µM (inactive). The GI50 (Malme-3M) was > 100 µM (inactive), the GI50 (NCI-H226) was > 100 µM (inactive) and the GI50 (OVCAR-3) was > 100 µM (inactive). For the same molecule, the GI50 (OVCAR-4) was > 100 µM (inactive), the GI50 (RXF 393) was > 100 µM (inactive) and the GI50 (SF-268) was > 100 µM (inactive). The GI50 (SF-295) was > 100 µM (inactive), the GI50 (SK-MEL-28) was > 100 µM (inactive) and the GI50 (SK-MEL-5) was > 100 µM (inactive). The GI50 (SN12C) was > 100 µM (inactive), the GI50 (SNB-19) was > 100 µM (inactive) and the GI50 (T47D) was > 100 µM (inactive). For the same molecule, the GI50 (UO-31) was > 100 µM (inactive).
COC(=O)C1=C(C)N2[C@H](C(=O)O)CO[C@@]2(C)[C@H](C(=O)OC)[C@H]1c1cccc([N+](=O)[O-])c1 was tested, and the GI50 (COLO 205) was > 100 µM (inactive), the GI50 (DU-145) was > 100 µM (inactive) and the GI50 (HCT-15) was greater than 100 µM. The GI50 (HOP-92) was > 100 µM (inactive), the GI50 (Hs-578T) was > 100 µM (inactive) and the GI50 (MOLT-4) was > 100 µM (inactive). For the same molecule, the GI50 (Malme-3M) was > 100 µM (inactive), the GI50 (NCI-H226) was > 100 µM (inactive) and the GI50 (OVCAR-3) was > 100 µM (inactive). For the same molecule, the GI50 (OVCAR-4) was > 100 µM (inactive), the GI50 (RXF 393) was > 100 µM (inactive) and the GI50 (SF-268) was > 100 µM (inactive). For the same molecule, the GI50 (SF-295) was > 100 µM (inactive), the GI50 (SK-MEL-28) was > 100 µM (inactive) and the GI50 (SK-MEL-5) was > 100 µM (inactive). For the same molecule, the GI50 (SN12C) was > 100 µM (inactive), the GI50 (SNB-19) was > 100 µM (inactive) and the GI50 (T47D) was > 100 µM (inactive). For the same molecule, the GI50 (UO-31) was > 100 µM (inactive).
CC1=NC(=Cc2ccccc2O)C(=O)N1n1c(-c2ccccc2)nc2ccccc2c1=O was tested, and the GI50 (COLO 205) was 34.5 µM (inactive), the GI50 (DU-145) was 29.1 µM (inactive) and the GI50 (HCT-15) was 39.4 µM. The GI50 (HOP-92) was 31.9 µM (inactive), the GI50 (Hs-578T) was 51.1 µM (inactive) and the GI50 (MOLT-4) was 20.6 µM (inactive). The GI50 (Malme-3M) was 80.5 µM (inactive), the GI50 (NCI-H226) was 51.1 µM (inactive) and the GI50 (OVCAR-3) was 26.7 µM (inactive). The GI50 (OVCAR-4) was 27.5 µM (inactive), the GI50 (RXF 393) was 31 µM (inactive) and the GI50 (SF-268) was 33.7 µM (inactive). The GI50 (SF-295) was 37.3 µM (inactive), the GI50 (SK-MEL-28) was 36.9 µM (inactive) and the GI50 (SK-MEL-5) was 23.8 µM (inactive). For the same molecule, the GI50 (SN12C) was 39.9 µM (inactive), the GI50 (SNB-19) was 65.5 µM (inactive) and the GI50 (T47D) was 21.5 µM (inactive). For the same molecule, the GI50 (UO-31) was 32.9 µM (inactive).
With O=[N+]([O-])C(Cl)=C/C(=C(\Cl)SCc1ccccc1)[N+](=O)[O-] the GI50 (COLO 205) was 17.8 µM (inactive), the GI50 (DU-145) was 31.4 µM (inactive) and the GI50 (HCT-15) was 18.2 µM. For the same molecule, the GI50 (HOP-92) was 15.4 µM (inactive), the GI50 (Hs-578T) was 53 µM (inactive) and the GI50 (MOLT-4) was 17.7 µM (inactive). For the same molecule, the GI50 (Malme-3M) was 20.2 µM (inactive), the GI50 (NCI-H226) was 26.8 µM (inactive) and the GI50 (OVCAR-3) was 15.5 µM (inactive). For the same molecule, the GI50 (OVCAR-4) was 18.1 µM (inactive), the GI50 (RXF 393) was 10.6 µM (inactive) and the GI50 (SF-268) was 28.6 µM (inactive). The GI50 (SF-295) was 28.6 µM (inactive), the GI50 (SK-MEL-28) was 26.3 µM (inactive) and the GI50 (SK-MEL-5) was 20.8 µM (inactive). The GI50 (SN12C) was 18.2 µM (inactive), the GI50 (SNB-19) was 38.4 µM (inactive) and the GI50 (T47D) was 16.9 µM (inactive). The GI50 (UO-31) was 20.5 µM (inactive).
In the case of Cc1ccc([N+](=O)[O-])cc1S(=O)(=O)Nc1ccc(C2=NOC(c3ccco3)C2)cc1 (centres undefined), the GI50 (COLO 205) is reported as 20.1 µM (inactive), the GI50 (DU-145) is reported as 20.2 µM (inactive) and the GI50 (HCT-15) is reported as 10.4 µM. For the same molecule, the GI50 (HOP-92) was 29.2 µM (inactive), the GI50 (Hs-578T) was 29.8 µM (inactive) and the GI50 (MOLT-4) was 15.1 µM (inactive). The GI50 (Malme-3M) was 16.6 µM (inactive), the GI50 (NCI-H226) was 17 µM (inactive) and the GI50 (OVCAR-3) was 14.8 µM (inactive). The GI50 (OVCAR-4) was 14.9 µM (inactive), the GI50 (RXF 393) was 8.73 µM (inactive) and the GI50 (SF-268) was 26.1 µM (inactive). The GI50 (SF-295) was 14.1 µM (inactive), the GI50 (SK-MEL-28) was 18.2 µM (inactive) and the GI50 (SK-MEL-5) was 13.2 µM (inactive). The GI50 (SN12C) was 21.9 µM (inactive), the GI50 (SNB-19) was 18.7 µM (inactive) and the GI50 (T47D) was 22.8 µM (inactive). For the same molecule, the GI50 (UO-31) was 16.9 µM (inactive).
In the case of Cn1cnc([N+](=O)[O-])c1Sc1nccc(O)n1, the GI50 (COLO 205) is reported as > 100 µM (inactive), the GI50 (HOP-92) is reported as > 100 µM (inactive) and the GI50 (M19-MEL) is reported as > 100 µM (inactive). For the same molecule, the GI50 (MOLT-4) was > 100 µM (inactive), the GI50 (Malme-3M) was > 100 µM (inactive) and the GI50 (NCI-H226) was > 100 µM (inactive). For the same molecule, the GI50 (OVCAR-3) was > 100 µM (inactive), the GI50 (OVCAR-4) was > 100 µM (inactive) and the GI50 (SF-268) was > 100 µM (inactive). For the same molecule, the GI50 (SF-295) was > 100 µM (inactive), the GI50 (SK-MEL-28) was > 100 µM (inactive) and the GI50 (SK-MEL-5) was > 100 µM (inactive). The GI50 (SN12C) was > 100 µM (inactive), the GI50 (SNB-19) was > 100 µM (inactive) and the GI50 (UO-31) was > 100 µM (inactive).
CC(=O)Nc1c2sscc-2n(C)c1=O [THIOLUTIN] was tested, and the GI50 (COLO 205) was 0.596 µM (active), the GI50 (DU-145) was 0.634 µM (active) and the GI50 (HCT-15) was 1.32 µM. The GI50 (HOP-92) was 2.23 µM (inactive), the GI50 (Hs-578T) was 2.6 µM (inactive) and the GI50 (MOLT-4) was 0.152 µM (active). For the same molecule, the GI50 (Malme-3M) was 0.787 µM (active), the GI50 (NCI-H226) was 1.89 µM (inactive) and the GI50 (OVCAR-3) was 1.82 µM (inactive). For the same molecule, the GI50 (OVCAR-4) was 1.56 µM (inactive), the GI50 (RXF 393) was 1.71 µM (inactive) and the GI50 (SF-268) was 1.56 µM (inactive). The GI50 (SF-295) was 1.35 µM (inactive), the GI50 (SK-MEL-28) was 1.37 µM (inactive) and the GI50 (SK-MEL-5) was 1.33 µM (inactive). The GI50 (SN12C) was 1.87 µM (inactive), the GI50 (SNB-19) was 1.96 µM (inactive) and the GI50 (T47D) was 1.58 µM (inactive). For the same molecule, the GI50 (UO-31) was 2.1 µM (inactive).
